This assay concerns the target T1, alpha2B receptor (Homo sapiens, UniProt P18089).
T1 construct: expressed in transfected cells; host or cells: NIH-3T3
T1 sequence (P18089 1-450): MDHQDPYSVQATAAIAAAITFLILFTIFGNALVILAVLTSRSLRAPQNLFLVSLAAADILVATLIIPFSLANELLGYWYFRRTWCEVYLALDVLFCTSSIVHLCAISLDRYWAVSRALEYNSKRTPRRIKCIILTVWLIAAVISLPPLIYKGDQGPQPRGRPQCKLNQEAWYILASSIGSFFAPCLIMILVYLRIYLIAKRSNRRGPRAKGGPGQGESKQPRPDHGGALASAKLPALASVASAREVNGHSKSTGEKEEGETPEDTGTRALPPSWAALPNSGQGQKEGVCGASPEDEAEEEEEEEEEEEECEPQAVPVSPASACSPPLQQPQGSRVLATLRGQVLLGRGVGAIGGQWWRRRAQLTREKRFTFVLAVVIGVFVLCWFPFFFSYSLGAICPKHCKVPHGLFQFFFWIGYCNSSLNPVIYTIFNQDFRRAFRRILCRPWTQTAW
In words: Receptor Selection and Amplification Technology (RSAT) assay, alpha2B. It is filed as cell-based. The settings on record: NIH-3T3 cells; for EC50: NA = not active at concentrations less than 10 micromolar, read-out: RSAT EC50 (nM) Alpha 2B; for fraction of activity of the standard (brimonidine) attained, Alpha 2B (number in parenthesis): ratio of maximal effect to that of standard full agonist brimonidine. The source says:
The compounds of the invention are agonists of α2 adrenergic receptors, particularly they tend to be specific or selective agonists of α2B and/or to a lesser extent α2C adrenergic receptors, in preference over α2A adrenergic receptors. […] Al., 1995, Pharmacol. Toxicol. 76, pp. 308-311 (incorporated herein by reference) and is also described below. Another reference pertinent to this assay is Conklin et al. (1993) Nature 363:274-6, also incorporated herein by reference.
The RSAT assay measures a receptor-mediated loss of contact inhibition that results in selective proliferation of receptor-containing cells in a mixed population of confluent cells. The increase in cell number is assessed with an appropriate transfected marker gene such as β-galactosidase, the activity of which can be easily measured in a 96-well format. Receptors that activate the G protein, Gq, elicit this response. Alpha2 receptors, which normally couple to Gi, activate the RSAT response when coexpressed with a hybrid Gq protein that has a Gi receptor recognition domain, called Gq/i5^2.
NIH-3T3 cells are plated at a density of 2×10^6 cells in 15 cm dishes and maintained in Dulbecco's modified Eagle's medium supplemented with 10% calf serum. One day later, cells are cotransfected by calcium phosphate precipitation with mammalian expression plasmids encoding p-SV-β-galactosidase (5-10 μg), receptor (1-2 μg) and G protein (1-2 μg). 40 μg salmon sperm DNA may also be included in the transfection mixture. Fresh media is added on the following day and 1-2 days later, cells are harvested and frozen in 50 assay aliquots. Cells are thawed and 100 μl added to 100 μl aliquots of various concentrations of drugs in triplicate in 96-well dishes. Incubations continue 72-96 hr at 37°. After washing with phosphate-buffered saline, β-galactosidase enzyme activity is determined by adding 200 μl of the chromogenic substrate (consisting of 3.5 mM o-nitrophenyl-β-D-galactopyranoside and 0.5% nonidet P-40 in phosphate buffered saline), incubating overnight at 30 and measuring optical density at 420 nm. The absorbance is a measure of enzyme activity, which depends on cell number and reflects a receptor-mediated cell proliferation. The EC50 and maximal effect of each drug at each alpha2 receptor is determined. The efficacy or intrinsic activity is calculated as a ratio of the maximal effect of the drug to the maximal effect of a standard full agonist for each receptor subtype. Brimonidine, also called […], the chemical structure of which is shown below, is used as the standard agonist for the alpha2A, alpha2B and alpha2C receptors. [drawing 6]
The results of the RSAT assay with several exemplary compounds of the invention are disclosed in Table 3. […] NA stands for “not active” at concentrations less than 10 micromolar. As is known EC50 is the concentration at which half of a given compound's maximal activity is observed. It can be seen from the table that the compounds of the invention are specific or selective agonists of α2B and/or α2C adrenergic receptors, with no agonist like activity or only with insignificant agonist-like activity on α2A receptors.

Here are results for 27 molecules from patent publication US6534542B2, “(2-hydroxy)ethyl-thioureas useful as modulators of α2B adrenergic receptors” (Allergen Sales, Inc., priority 2001, dated 2003).

SMILES strings stand for the structures.

Usually EC50 stands for the concentration giving half of the maximal effect. Regarding `C[C@@H]1CCC[C@@H]1NC(=S)NCCO` (relative stereo) [Compound 12, 1-(2-Hydroxy-ethyl)-3-(cis-2-methyl-cyclopentyl)-thiourea], the EC50 was determined as 1530 nM and the “fraction of activity of the standard (brimonidine) attained, Alpha 2B (number in parenthesis)” value (shortened to “fraction of activity of the standard”) is “(0.47)”.
Take `C[C@H]1CCC[C@H](NC(=S)NCCO)C1` (relative stereo) [Compound 38, (trans)-1-(2-Hydroxy-ethyl)-3-(3-methyl-cyclohexyl)-thiourea]: the EC50 was 1150 nM and the “fraction of activity of the standard” value is given as “(0.4)”.
For the molecule `C[C@H]1CCC[C@H](NC(=S)NCCO)C1` (single isomer, unassigned) [Compound 39, (cis)-1-(2-Hydroxy-ethyl)-3-(3-methyl-cyclohexyl)-thiourea], the EC50 was found to be 80 nM and the “fraction of activity of the standard” value is listed as “(0.65)”.
Turning to `OCCNC(=S)NCC1CCCCC1` [Compound 1, 1-Cyclohexylmethyl-3-(2-hydroxy-ethyl)-thiourea], the EC50 was 204 nM and the “fraction of activity of the standard” value was “(0.61)”.
With `CC(C)[C@@H]1CC[C@@H](C)C[C@H]1NC(=S)NCCO` [Compound 2, 1-(2-Hydroxy-ethyl)-3-(1R,2S,5R-2-isopropyl-5-methyl-cyclohexyl)-thiourea], the half-maximal effective concentration (EC50) was found to be 189 nM and the “fraction of activity of the standard” value is “(0.54)”.
On the same counts, the results for `OCCNC(=S)NCC1=CCCCC1` [Compound 3, 1-(Cyclohex-1-enylmethyl)-3-(2-hydroxy-ethyl)-thiourea] are 877 nM and “(0.8)”.
In the case of `OCCNC(=S)NCC1C=CCCC1` (stereo not drawn) [Compound 4, 1-(Cyclohex-2-enylmethyl)-3-(2-hydroxy-ethyl)-thiourea], the concentration giving a half-maximal response (EC50) worked out at 66 nM and the “fraction of activity of the standard” value was “(0.63)”.
Turning to `CCC[C@@H]1CCCC[C@H]1NC(=S)NCCO` [Compound 5, 1-(2-Hydroxy-ethyl)-3-((1R,2R)-2-propyl-cyclohexyl)-thiourea], the EC50 was 216 nM and the “fraction of activity of the standard” value is “(0.49)”.
Regarding `OCCNC(=S)NC1CCCCC1` [Compound 6, 1-Cyclohexyl-3-(2-hydroxy-ethyl)-thiourea], the EC50 is 311 nM and the “fraction of activity of the standard” value is on record as “(0.28)”.
On the same counts, the results for `OCCNC(=S)N[C@H]1CC[C@H](O)CC1` [Compound 7, 1-(4-Hydroxy-cyclohexyl)-3-(2-hydroxy-ethyl)-thiourea] are more than 2000 nM and “(0.32)”.
Take `OCCNC(=S)NCC1CCCC1` [Compound 9, 1-Cyclopentylmethyl-3-(2-hydroxy-ethyl)-thiourea]: the EC50 was found to be 441 nM and the “fraction of activity of the standard” value is reported as “(0.62)”.
For `OCCNC(=S)NCC1CCCCCC1` [Compound 10, 1-Cycloheptylmethyl-3-(2-hydroxy-ethyl)-thiourea], in that order: 355 nM and “(0.54)”.
On the same counts, the results for `CC1CC=CCC1CNC(=S)NCCO` (stereo not drawn) [Compound 11, 1-(2-hydroxy-ethyl)-3-(6-methyl-cyclohex-3-enylmethyl)-thiourea] are 20 nM and “(0.93)”.
On the same counts, the results for `CC1=CC(NC(=S)NCCO)CC1` (stereo not drawn) [Compound 13, 1-(2-Hydroxy-ethyl)-3-(3-methyl-cyclopent-2-enyl)-thiourea] are 111 nM and “(0.66)”.
In the case of `CC1=CC(NC(=S)NCCO)CCC1` (stereo not drawn) [Compound 16, 1-(2-Hydroxy-ethyl)-3-(3-methyl-cyclohex-2-enyl)-thiourea], the EC50 amounted to 58 nM and the “fraction of activity of the standard” value was “(0.54)”.
For `OCCNC(=S)NCC1=C(Cl)CCCC1` [Compound 17, 1-(2-chloro-cyclohex-1-enylmethyl)-3-(2-hydroxy-ethyl)thiourea], in that order: 15 nM and “(0.63)”.
For `OCCNC(=S)NCC1=C(Br)CCCC1` [Compound 18, 1-(2-Bromo-cyclohex-1-enylmethyl)-3-(2-hydroxy-ethyl)-thiourea], the EC50 turned out to be 10 nM and the “fraction of activity of the standard” value is given as “(0.77)”.
On the same counts, the results for `CCC1=CC(CNC(=S)NCCO)CCC1` (stereo not drawn) [Compound 19, 1-(2-Hydroxy-ethyl)-3-(3-ethyl-cyclohex-2-enylmethyl)-thiourea] are 55 nM and “(0.46)”.
On the same counts, the results for `CC1=CC(CNC(=S)NCCO)CCC1` (stereo not drawn) [Compound 20, 1-(2-Hydroxy-ethyl)-3-(3-methyl-cyclohex-2-enylmethyl)-thiourea] are 37 nM and “(0.78)”.
On the same counts, the results for `CC1=CCCCC1CNC(=S)NCCO` (stereo not drawn) [Compound 21, 1-(2-Hydroxy-ethyl)-3-(2-methyl-cyclohex-2-enylmethyl)-thiourea] are 72 nM and “(0.87)”.
Consider `CCC1=CCCCC1CNC(=S)NCCO` (stereo not drawn) [Compound 22, 1-(2-Hydroxy-ethyl)-3-(2-ethyl-cyclohex-2-enylmethyl)-thiourea], for which the EC50 was 126 nM and the “fraction of activity of the standard” value is listed as “(0.73)”.
For `CC1=C(CNC(=S)NCCO)CCCC1` [Compound 23, 1-(2-Hydroxy-ethyl)-3-(2-methyl-cyclohex-1-enylmethyl)-thiourea], in that order: 125 nM and “(0.68)”.
On the same counts, the results for `CCC1=C(CNC(=S)NCCO)CCCC1` [Compound 24, 1-(2-Hydroxy-ethyl)-3-(2-ethyl-cyclohex-1-enylmethyl)-thiourea] are 772 nM and “(0.71)”.
Consider `CCCCC1=CCCC1CNC(=S)NCCO` (stereo not drawn) [Compound 26, 1-(2-Butyl-cyclopent-2-enylmethyl)-3-(2-hydroxy-ethyl)-thiourea], for which the EC50 amounted to 816 nM and the “fraction of activity of the standard” value was “(0.48)”.
On the same counts, the results for `CC1C=C(CNC(=S)NCCO)CC1` (stereo not drawn) [Compound 28, 1-(2-Hydroxy-ethyl)-3-(3-methyl-cyclopent-1-enylmethyl)-thiourea] are 544 nM and “(0.52)”.
As to `OCCNC(=S)NC1CCCC=C1Br` (stereo not drawn) [Compound 29, 1-(2-Bromo-cyclohex-2-enyl)-3-(2-Hydroxy-ethyl)-thiourea], the concentration for a half-maximal effect (EC50) was found to be 90 nM and the “fraction of activity of the standard” value was “(0.84)”.
On the same counts, the results for `CCCC1=CCCCC1NC(=S)NCCO` (stereo not drawn) [Compound 30, 1-(2-Hydroxy-ethyl)-3-(2-propyl-cyclohex-2-enyl)-thiourea] are 78 nM and “(0.71)”.
